Test results: patent US7655654B2, “Farnesyl transferase inhibiting tricyclic quinazoline derivatives substituted with carbon-linked imidazoles or triazoles” (Janssen Pharmaceutica NV, priority 2002, dated 2010)

Key:
[1] = biological target: farnesyl protein transferase (Homo sapiens, UniProt P49354+P49356); assay: In vitro assay for inhibition of farnesyl protein transferase; format: biochemical; conditions: for inhibition at 0.1 µM / % of inhibition at 10^−7 M: at 10^−7 M; for IC50 / Enzyme activity pIC50: negative log value of the IC50-value; for IC50: read-out: Enzyme activity pIC50 (converted)
Procedure: Example C.1: “In Vitro Assay for Inhibition of Farnesyl Protein Transferase”:
An in vitro assay for inhibition of farnesyl transferase was performed essentially as described in WO 98/40383, pages 33-34. Herein the effects of test compounds are expressed as pIC50 (the negative log value of the IC50-value) and as % of inhibition at 10^−7 M (see Table F-2)

Compound	melting point	inhibition at 0.1 µM [1]	IC50 [1]	% of inhibition at 10^−7 M [1]	Enzyme activity pIC50 [1]
Cn1cncc1C(O)(c1ccc(I)cc1)c1ccc2c(c1)C(c1cccc(Cl)c1)n1nnnc1N2 (mixture of isomers) [Compound 18]	225 °C	76%	29.9 nM	–	–
Cc1ccc(C(N)(c2ccc3c(c2)C(c2cccc(Cl)c2)n2nnnc2N3)c2cncn2C)cc1 (single isomer, unassigned) [Compound 5, 9-(3-chlorophenyl)-4,9-dihydro-α-(1-methyl-1H-imidazol-5-yl)-α-(4-methylphenyl)-tetrazolo[5,1-b]quinazoline-7-methanamine]	–	–	< 1 nM	99%	–
CCOC(=O)CN1c2ccc(C(O)(c3ccc(OC)cc3)c3cncn3C)cc2C(c2cccc(Cl)c2)n2nnnc21 (mixture of isomers) [Compound 13]	126 °C	80%	25.4 nM	–	–
CN1c2ccc(C(O)(c3ccc(I)cc3)c3cncn3C)cc2C(c2cccc(Cl)c2)n2nnnc21 (mixture of isomers) [Compound 21]	228 °C	78%	19.1 nM	–	–
CC(C)OC(=O)c1ccc(C(O)(c2ccc3c(c2)C(c2cccc(Cl)c2)n2nnnc2N3C)c2cncn2C)cc1 (mixture of isomers) [Compound 25]	165 °C	66%	< 100 nM	–	–
Cn1cnnc1C(O)(c1ccc(I)cc1)c1ccc2c(c1)C(c1cccc(Cl)c1)n1nnnc1N2 (mixture of isomers) [Compound 16]	226 °C	45%	> 100 nM	–	–
CN1c2ccc(C(O)(c3ccc(I)cc3)c3nncn3C)cc2C(c2cccc(Cl)c2)n2nnnc21 (mixture of isomers) [Compound 22]	181 °C	57%	< 100 nM	–	–
Cn1cnnc1C(O)(c1ccc(I)cc1)c1ccc2c(c1)C(c1cccc(Cl)c1)n1nnnc1N2 (stereo not drawn) [Compound 17]	195 °C	–	–	42%	<7
COc1ccc(C(c2ccc3c(c2)C(c2cccc(Cl)c2)n2nnnc2N3C)c2cncn2C)cc1 (mixture of isomers) [Compound 20]	108 °C	91%	9.2 nM	–	–
Cn1cncc1[C@@](N)(c1ccc(Cl)cc1)c1ccc2c(c1)C(c1cccc(Cl)c1)n1nnnc1N2 (single isomer, unassigned) [Compound 11]	242 °C	46%	> 100 nM	–	–
COc1ccc(C(O)(c2ccc3c(c2)C(c2cccc(Cl)c2)n2nnnc2N3Cc2ccc(C#N)cc2)c2cncn2C)cc1 (mixture of isomers) [Compound 14]	164 °C	74%	18.6 nM	–	–
Cn1cncc1C(O)(c1ccc(Cl)cc1)c1ccc2c(c1)C(c1cccc(Cl)c1)n1nnnc1N2 (stereo not drawn) [Compound 1, 9-(3-chlorophenyl)-α-(4-chlorophenyl)4,9-dihydro-α-(1-methyl-1H-imidazol-5-yl)-tetrazolo[5,1-b]quinazoline-7-methanol]	> 260 °C	81%	25.4 nM	–	–
CCOC(c1ccc(Cl)cc1)(c1ccc2c(c1)C(c1cccc(Cl)c1)n1nnnc1N2)c1cncn1C (stereo not drawn) [Compound 10]	–	43%	> 100 nM	–	–
COc1ccc(C(O)(c2ccc3c(c2)C(c2cccc(Cl)c2)n2nnnc2N3C)c2cncn2C)cc1 (mixture of isomers) [Compound 15]	144 °C	88%	16.6 nM	–	–
Cc1ccc(C(N)(c2ccc3c(c2)C(c2cccc(Cl)c2)n2nnnc2N3)c2cncn2C)cc1 (single isomer, unassigned) [Compound 4, 9-(3-chlorophenyl)-4,9-dihydro-α-(1-methyl-1H-imidazol-5-yl)-α-(4-methylphenyl)-tetrazolo[5,1-b]quinazoline-7-methanamine]	–	–	34.6 nM	74%	–
COc1ccc(C(O)(c2ccc3c(c2)C(c2cccc(Cl)c2)n2nnnc2N3CC2CC2)c2cncn2C)cc1 (stereo not drawn) [Compound 9]	121 °C	82%	20.6 nM	–	–
Cn1cncc1C(O)(c1ccc(F)cc1)c1ccc2c(c1)C(c1cccc(Cl)c1)n1nnnc1N2 (stereo not drawn) [Compound 2, 9-(3-chlorophenyl)-α-(4-fluorophenyl)4,9-dihydro-α-(1-methyl-1H-imidazol-5-yl)-tetrazolo[5,1-b]quinazoline-7-methanol]	180 °C	96%	1.77 nM	–	–
CN1c2ccc(C(O)(c3ccc(Cl)cc3)c3cncn3C)cc2C(c2cccc(Cl)c2)n2nnnc21 (mixture of isomers) [Compound 19]	–	92%	9.71 nM	–	–
Cn1cncc1[C@](N)(c1ccc(Cl)cc1)c1ccc2c(c1)C(c1cccc(Cl)c1)n1nnnc1N2 (stereo partly drawn) [Compound 23]	> 250 °C	98%	2.54 nM	–	–
Cn1cncc1[C@](N)(c1ccc(Cl)cc1)c1ccc2c(c1)C(c1cccc(Cl)c1)n1nnnc1N2 (stereo partly drawn) [Compound 24]	183 °C	–	11.7 nM	88%	–
COc1ccc(C(O)(c2ccc3c(c2)C(c2cccc(Cl)c2)n2nnnc2N3)c2cncn2C)cc1 (single isomer, unassigned) [Compound 8]	176 °C	–	12.4 nM	88%	–
COc1ccc(C(O)(c2ccc3c(c2)C(c2cccc(Cl)c2)n2nnnc2N3)c2cncn2C)cc1 (single isomer, unassigned) [Compound 7]	> 260 °C	–	< 100 nM	64%	–
Cn1cncc1[C@@](N)(c1ccc(Cl)cc1)c1ccc2c(c1)C(c1cccc(Cl)c1)n1nnnc1N2 (single isomer, unassigned) [Compound 12]	162 °C	–	–	42%	<7
COc1ccc(C(O)(c2ccc3c(c2)C(c2cccc(Cl)c2)n2nnnc2N3C)c2cncn2C)cc1 (mixture of isomers) [Compound 6]	–	–	14.1 nM	90%	–
COc1ccc(C(O)(c2ccc3c(c2)C(c2cccc(Cl)c2)n2nnnc2N3)c2cncn2C)cc1 (stereo not drawn) [Compound 3, 9-(3-chlorophenyl)-4,9-dihydro-α-(4-methoxyphenyl)-α-(1-methyl-1H-imidazol-5-yl)-tetrazolo[5,1-]quinazoline-7-methanol]	–	80%	23.3 nM	–	–
